In patent publication US12263177B2, “Biologically active ganoderma lucidum compounds and synthesis of anticancer derivatives; ergosterol peroxide probes for cellular localization” (priority 2019, dated 2025):
Like-named read-outs stand apart in the source and are kept apart here.

Experiments:
MDA-MB-231 = experiment: Cytotoxicity of EP probes via CTG assay; assay type: cell-based, human; settings: Homo sapiens, MDA-MB-231, 72 hr, read-out: MDA-MB231 EC50
Description: (§1) Both normal cell lines HMEC and BJ cells were also evaluated to determine therapeutic index.
(§2) The concentrations used were experimentally determined to ensure logarithmic growth during the duration of the experiment and prevent adverse effects on cell growth by DMSO exposure. The plates were incubated at 37° C. in 5% CO2 for 24 h before treatment. Stock solutions of test compounds (10 mM in DMSO) in nine 3-fold serial dilutions were dispensed via pintool (Biomek). The final concentration of DMSO was 0.3% (v/v) in each well. The plates were incubated for 72 h at 37° C. in 5% CO2 and then quenched with CellTiter-Glo® reagent (50 μL/well in 96-well plate, 30 μL/well in 384-well plate) at RT. The positive controls included staurosporine (10 μM), gambogic acid (10 μM), and a toxic quinoline generated in-house. Plates were then incubated at RT for 20 min and centrifuged at 1000 rpm for 1 min. The cytotoxicity assay was performed by using the CellTiterGlo Luminescent Cell Viability Assay kit (G7570, Promega, Madison, WI) according to the manufacturer's instructions. Luminescence was recorded in an Envision plate reader (Perkin Elmer).
(§3) For the CTG assay, 3 or 4 replicate assays were conducted for each experimental condition, and a minimum of 3 independent experiments were conducted for cellular assays. The mean luminescence of each experimental treatment group was normalized as a percentage of the mean intensity of untreated controls. EC50 values (μM) were calculated by Pipeline Pilot Software (Accelrys, Enterprise Platform, CA, USA). EC50 values (μM) from the viability assay were calculated from dose response curve-fitting via non-linear regression by using GraphPad Prism (Version 7.0 San Diego, CA).

SUM-149 = experiment: Cytotoxicity of EP probes via CTG assay; assay type: cell-based, human; settings: Homo sapiens, SUM149, 72 hr
Description: as §1, §2, §3

T47D = experiment: Cytotoxicity of EP probes via CTG assay; assay type: cell-based; settings: Homo sapiens, T47D, 72 hr
Description: as §1, §2, §3

SUM-149 cells [1] = experiment: Cell viability assay (CellTiter-Glo or PI staining); assay type: cell-based, human; settings: for EC50: Homo sapiens, read-out: EC50, SUM-149 cell viability
Description: (§4) Different concentrations of GLE-extracted bioactive chemical components were tested for 72-h treatment periods.
Either 1×10^3-4.8×10^3 or 4×10^2-1.2×10^3 cells were seeded to each well of 96- or 384-well white polystyrene flat-bottomed plates (3610 or 8804BC, Corning) in 100 μL or 30 μL media per well, respectively. The concentrations used were experimentally determined to ensure logarithmic growth during the duration of the experiment and prevent adverse effects on cell growth by DMSO exposure. The plates were incubated at 37° C. in 5% CO2 for 24 h before treatment. Stock solutions of test compounds (10 mM in DMSO) in nine 3-fold serial dilutions were dispensed via pintool (Biomek). The final concentration of DMSO was 0.3% (v/v) in each well. The plates were incubated for 72 h at 37° C. in 5% CO2 and then quenched with CellTiter-Glo® reagent (50 μL/well in 96-well plate, 30 μL/well in 384-well plate) at RT. The positive controls included staurosporine (10 μM), gambogic acid (10 μM), and a toxic quinoline generated in-house. Plates were then incubated at RT for 20 min and centrifuged at 1000 rpm for 1 min. The cytotoxicity assay was performed by using the CellTiterGlo Luminescent Cell Viability Assay kit (G7570, Promega, Madison, WI) according to the manufacturer's instructions. Luminescence was recorded in an Envision plate reader (Perkin Elmer).
as §3

MDA-MB-231 TNBC cells = experiment: as above; assay type: cell-based; settings: Homo sapiens, MDA-MB-231, read-out: EC50, MDA-MB-231 cell viability; FIG. 4E
Description: as §4
(§5) Either 1×10^3-4.8×10^3 or 4×10^2-1.2×10^3 cells were seeded to each well of 96- or 384-well white polystyrene flat-bottomed plates (3610 or 8804BC, Corning) in 100 μL or 30 μL media per well, respectively. The concentrations used were experimentally determined to ensure logarithmic growth during the duration of the experiment and prevent adverse effects on cell growth by DMSO exposure. The plates were incubated at 37° C. in 5% CO2 for 24 h before treatment. Stock solutions of test compounds (10 mM in DMSO) in nine 3-fold serial dilutions were dispensed via pintool (Biomek). The final concentration of DMSO was 0.3% (v/v) in each well. […] Luminescence was recorded in an Envision plate reader (Perkin Elmer).
as §3

SUM-190 IBC cells = experiment: as above; assay type: cell-based; settings: SUM190; FIG. 4E
Description: as §4, §5, §3

SUM-149 cells [2] = experiment: Cell cycle assay; assay type: cell-based, human; settings: EP 20 μM, 48 h
Description: SUM-149 cells were treated for 48 h with EP, then collected and washed in 1×PBS. The cells (5×10^5) were fixed and permeabilized in 70% ethanol at −20° C. until further analysis. To measure the DNA content, the cells were washed and resuspended in 150 μL of PBS buffer then incubated in 100 μL of 100 μg/mL RNase A (MilliporeSigma, Burlington, MA) for 15 min at RT, then 250 μL of 50 μg/mL Propidium Iodide (MilliporeSigma) was added. Samples were incubated at RT for 10 min and analyzed on a BD FACS Canto II flow cytometer (BD Biosciences, San José, Calif.). Data were analyzed by using FlowJo software (V10, FlowJo LLC, Ashland, OR).

[3] = system: MDA-MB-231 breast cancer cells; experiment: De novo in-cell protein synthesis (click assay); assay type: cell-based, human; settings: 2 h treatment; EP 20 μM
Description: First, 2.5×10^4 cells/well were seeded in 8-well μ-slides (Ibidi®, #80826) and incubated at 37° C. for 12 h. The cells were treated with vehicle, compounds Ganoderic acid A or EP, or cycloheximide (positive control) for 2 h to determine protein synthesis as nascent proteins generated using Biovision's EZClick™ Global Protein Synthesis Assay Kit, (#K715-100, Milpitas, CA). The assay includes a robust chemical method based on an alkyne containing o-propargyl-puromycin (OP-puro) probe, which stops translation by forming covalent conjugates with nascent polypeptide chains. Truncated polypeptides are rapidly turned over by the proteasome and can be detected based on the subsequent click reaction with a fluorescent azide. The reaction was conducted according to the manufacturer's protocol. Cells were imaged at 20× with a Nikon C2 scanning confocal microscope, and the whole image montage was quantified by using Gen5 Software and Lionheart™ FX Automated Microscope (BioTek, Winooski, VT).

MDA-MB-231 cells = experiment: Reactive oxygen species (ROS) measurement, CellROX; assay type: cell-based, human; settings: EP 20 μM, vs vehicle
Solubility observations = assay type: physicochemical
Description: One of the liabilities with EP is sharing its core with cholesterol, an amphipathic molecule with part-water soluble, part-water insoluble character. Thus, while able to readily cross the cell membrane, the ability to deliver the pure compound faces challenges. EP's solubility properties are poor in DMSO or water unless warmed up to 30° C. However, in this report, EP's derivative, EP sulfonamide, was soluble at 10 mM in DMSO. Thus, the generation of a selective anti-cancer compound with greater potency than EP, and ample therapeutic window when compared to BJ normal cells, was accomplished.

[4] = Incubation with NAC monitored by NMR and LC-MS; assay type: physicochemical; settings: DMSO, 24 h, 37° C.
Description: Live-cell CellROX® assays for oxidative stress detection were conducted to evaluate whether GA-01, ergosterol, 5-6-dihydroergosterol and EP trigger intrinsic apoptosis pathways by inducing ROS. […] Menadione or t-Butyl hydrogen peroxide (TBHP) were positive controls (FIGS. 7 and S5) and co-treated with N-acetyl cysteine (NAC) to confirm that the signal was due to ROS formation induced by the compound. […] Furthermore, the possibility of the endoperoxide motif to react with NAC, was assessed EP was incubated with NAC in DMSO for 24 h at 37° C. […] Thus, the ability of EP to induce ROS could potentially be via a different mechanism from that of TBHP in MCF-7 cells.

MDA-MB-231 GFP tumors = experiment: In vivo tumor progression, MDA-MB-231-GFP mammary fat pad xenograft; settings: 100 mg/kg BW i.p. three times per week, female SCID mice
Description: Female severe combined immunodeficient (SCID) mice (21 d of age) were purchased from Charles River Laboratories International Inc. (Wilmington, MA) and housed under specific pathogen free conditions. The mice received autoclaved AIN 76-A phytoestrogen-free diet (Tek Global, Harlan Teklad, Madison, WI) and water ad libitum. This protocol was approved by the Universidad Central del Caribe IACUC. Cell inoculations were performed as previously described by the inventors (PMID: 20517637, PMID: 23468988, PMID: 26958085, PMID: 30542507, PMID: 31658643). […] After tumor establishment the animals were randomly divided into control and experimental groups. Treatment started on week 5 post-inoculations when tumors were ˜100 mm^3. […]
The mice were imaged following tumor establishment, and once per week thereafter. Tumor progression was monitored by fluorescence image analysis taken on an UVP iBox Explorer (Analytik Jena, Upland, CA) and quantified as in PMID: 20517637. Relative tumor growth was calculated as the fluorescence intensity of each tumor on day of imaging. Quantification for tumor progression was calculated using the fluorescence intensity of each treated tumor relative to the fluorescence intensity of the same tumor on d 01 of treatment administration (week 5) using ImageJ software (National Institutes of Health, Bethesda, MD). […]

CC(C)[C@@H](C)/C=C/[C@@H](C)[C@H]1CC[C@@H]2[C@]1(C)CC[C@H]1[C@]23C=C[C@]2(C[C@@H](O)CC[C@]12C)OO3 [EP, ergosterol peroxide]
EC50 (MDA-MB-231): 18 µM
EC50 (SUM-149): 6 µM
EC50 (T47D): 19 µM
concentration at which SUM-149 cell viability is significantly reduced (SUM-149 cells [1]; 72 h): 8 µM
EC50 (SUM-149 cells [1]; SUM149, 24 h): 34 µM
EC50 (SUM-149 cells [1]; SUM149, 72 h): 20 µM
EC50 (MDA-MB-231 TNBC cells): 19 µM
EC50 (SUM-190 IBC cells): 43 µM
increase in percentage of cells in G1 phase (SUM-149 cells [2]): ~20%
reduction of the percentage of cells in G2/M (SUM-149 cells [2]): 10%
de novo protein synthesis inhibition [3]: do not inhibit de novo protein synthesis
ROS formation, fold (MDA-MB-231 cells): 2 fold
solubility properties (in words) (Solubility observations): poor
reaction of the endoperoxide with NAC [4]: no observable olefin migration or opening of the endoperoxide was detected
tumor growth rate (GFP fluorescence integrated density relative to week 5) (MDA-MB-231 GFP tumors): significantly decreases
